Several values for one entry are separate records, joined by “and”; a condition that tells them apart may be missing. Equal entries are not always repeated. Where two headings read alike, the source gives them in different places. Marks after values point to notes of the source that are not given here.
Experiments:
S. pneumoniae NCTC7466 = assay: MIC against S. pneumoniae NCTC7466 (D39); type: cell-based; details: Streptococcus pneumoniae, NCTC7466
Description: (§1) Minimum inhibitory concentration (MIC) assays for the antibacterial activities of the compounds were performed according to the standard […] method of the Clinical and Laboratory Standards Institute of America. MIC testing of drug-resistant S. pneumoniae, drug-resistant S. aureus, streptococci and antimicrobial combination was also performed using the same method. Briefly, the drugs were serially diluted 2-fold into eight wells with C+Y medium, yielding final concentrations ranging from […]. Then 10^6 CFU bacteria were added to each well. Inoculated medium containing 1% DMSO served as a bacterial growth control, whereas uninoculated medium served as a sterility control. The plates were incubated at 37°C for 12–16 h. […] The experiment was repeated three times.

pneumococcal strains = assay: MIC against clinical pneumococcal strains (penicillin susceptible, intermediate, resistant); type: cell-based, Streptococcus pneumoniae; details: for MIC50 / MIC90: Streptococcus pneumoniae
Description: as §1

S. pyogenes = assay: MIC against S. pyogenes; type: cell-based; details: Streptococcus pyogenes
Description: as §1

S. mitis = assay: MIC against S. mitis; type: cell-based; details: Streptococcus mitis
Description: as §1

S. mutans = assay: MIC against S. mutans; type: cell-based; details: Streptococcus mutans
Description: as §1

S. pseudopneumoniae = assay: MIC against S. pseudopneumoniae; type: cell-based; details: Streptococcus pseudopneumoniae
Description: as §1

[1] = tested on: Methicillin resistant S. aureus; assay: MIC against methicillin resistant S. aureus; type: cell-based; details: Staphylococcus aureus
Description: as §1

Cytotoxicity assay (MTT) = type: cell-based; details: African green monkey, Vero cells
Description: The cytotoxicity of the drugs to Vero cells (African green monkey kidney cells) was detected as previously described (Huang et al., [2012]) with minor modifications. In 96-well cell culture plates, the cells (~10^3 cells per well) were exposed to the serially diluted drugs for 48 h. Then, relative cell numbers were assayed by co-incubation with 3-(4, 5-dimethylthiazol-2-yl)-2, 5-diphenyltetrazolium bromide for 4 h at 37°C in 5% CO2. Purple formazan salts were dissolved with DMSO after incubation. The absorbance of each well was measured at 595 nm and then converted to percentages of the control (cells treated with 1% DMSO). The concentration of the derivatives with 50% cytotoxicity for Vero cells (CC50) was calculated using GraphPad Prism 5 (San Diego, CA).

[2] = tested on: Penicillin-resistant S. pneumoniae strains; assay: Checkerboard test with penicillin against penicillin-resistant S. pneumoniae; type: cell-based, Streptococcus pneumoniae; details: Streptococcus pneumoniae, agent alone
Description: as §1
(§2) The antimicrobial effects of different combinations of two antimicrobial agents were assayed using the checkerboard test (Bajaksouzian et al., [1997]). Each experiment was repeated thrice. The in vitro interaction between the five drugs with PEN was quantified by the fractional inhibitory concentration (FIC). The FIC index (FICI) was calculated using the following formula:
(§3) (2) FIC=FICA+FICB=[A]/MICA+[B]/MICB
(§4) where [A] and [B] are the concentrations of drugs A and B, respectively; MICA and FICA are the MIC and FIC of drug A for the organism, respectively; and MICB, and FICB are the MIC and FIC of drug B for the organism, respectively. The FIC index obtained was interpreted as follows: =0.5, synergy; FIC > 2.0, antagonism (Gupta and Kohli, [2003]).

S. aureus = assay: Checkerboard test with penicillin against S. aureus; type: cell-based, Staphylococcus aureus; details: for MIC: Staphylococcus aureus
Description: as §1, §2, §3, §4

S. pneumoniae = assay: Checkerboard test with erythromycin or tetracycline against S. pneumoniae; type: cell-based, Streptococcus pneumoniae
Description: The antimicrobial effects of different combinations of two antimicrobial agents were assayed using the checkerboard test (Bajaksouzian et al., [1997]). Each experiment was repeated thrice. […] The FIC index (FICI) was calculated using the following formula:
as §3, §4

[3] = tested on: clinical S. pneumoniae 19A (CMCC31689); assay: Mouse colonization model, serotype 19A; type: in vivo, BALB/c mice; details: for Mean log CFU at site of infection: 19A
Description: (§5) In colonization models, the mice were intranasally challenged by 20 μL of clinical drug-resistant strains (pneumococcal serotype 19F or 19A, 1.5 × 10^8 CFU). An hour later, the mice were intraperitoneally injected with 100 μL drugs (2 × MIC) alone or in combination with PEN (2 × MIC). These injections were continued thrice a day for 3 d. Nasal wash and lung tissues were obtained to analyze the bacteria load at 24, 48, and 72 h after drug infection. Then 100 μL aliquots of the samples diluted were plated on blood agar plates. The colonies were counted after incubation overnight at 37°C with 5% CO2.

[4] = tested on: clinical S. pneumoniae 19F (CMCC31693); assay: Mouse colonization model, serotype 19F; type: in vivo, BALB/c mice; details: for Mean log CFU at site of infection: 19F
Description: as §5

[5] = tested on: S. pneumoniae NCTC7466 biofilm; assay: Biofilm-killing assay (crystal violet); type: cell-based, Streptococcus pneumoniae; details: crystal violet staining; 15.6–2000 μM; MIC or sub-MIC levels
Description: Biofilm formation was detected using a semiquantitative plate assay (Moscoso et al., [2006]). 10^6 CFU of D39 was incubated in C+Y medium for 6 h in a 96-well plate at 37°C. Then removed the planktonic cells, fresh C+Y medium containing the serially diluted drugs was added to each well and incubated for another 12 h at 37°C. The wells were washed gently three times with phosphate-buffered saline (PBS) and then stained with 1% (w/v) crystal violet. 200 μL methanol was added to dissolve the precipitate and determine the absorbance of the wells at 590 nm using a spectrophotometer (DTX880, Beckman Coulter, USA). The values of biofilm formation were normalized for absorbance, and the percentages were calculated in relation to control. The experiment was repeated twice.

[6] = in combination with Erythromycin
[7] = in combination with Tetracycline

CC(C)=CCCC1=CC(=O)c2c(O)ccc(O)c2C1=O [Compound 3, Deoxyshikonin]
MIC (S. pneumoniae NCTC7466): 17 µg/mL and 62 µM
MIC of pneumococcal strains, Range (pneumococcal strains; Penicillin intermediate (n = 12)): 34 to 196 µg/mL
MIC of pneumococcal strains, MIC50 (pneumococcal strains; Penicillin resistant (n = 15)): 17 µg/mL
MIC of pneumococcal strains, Range (pneumococcal strains; Penicillin resistant (n = 15)): 8.5 to 136 µg/mL
MIC of pneumococcal strains, Range (pneumococcal strains; Penicillin susceptible (n = 7)): 17 to 34 µg/mL
MIC50 (pneumococcal strains; read-out: MIC of pneumococcal strains, MIC50, Penicillin intermediate (n = 12)): 68 µg/mL
MIC50 (pneumococcal strains; read-out: MIC of pneumococcal strains, MIC50, Penicillin resistant (n = 15)): 17 µg/mL
MIC50 (pneumococcal strains; read-out: MIC of pneumococcal strains, MIC50, Penicillin susceptible (n = 7)): 17 µg/mL
MIC90 (pneumococcal strains; read-out: MIC of pneumococcal strains, MIC90, Penicillin intermediate (n = 12)): 196 µg/mL
MIC90 (pneumococcal strains; read-out: MIC of pneumococcal strains, MIC90, Penicillin resistant (n = 15)): 68 µg/mL
MIC90 (pneumococcal strains; read-out: MIC of pneumococcal strains, MIC90, Penicillin susceptible (n = 7)): 34 µg/mL
MIC (S. pyogenes): 8.5 µg/mL
MIC (S. mitis): 125 µg/mL
MIC (S. mutans): 34 µg/mL
MIC (S. pseudopneumoniae): 136 µg/mL
MIC [1]: 34 to 68 µg/mL
CC50 at 48 h (Cytotoxicity assay (MTT)): 4.68 mM
MIC ([2]; read-out: MIC, Alone, strain 652336): 136 µg/mL
MIC ([2]; read-out: MIC, Alone, strain 736007): 136 µg/mL
MIC ([2]; read-out: MIC, Alone, strain 8364981): 136 µg/mL
MIC ([2]; read-out: MIC, Alone, strain 12092624): 136 µg/mL
MIC, Alone (S. aureus; MRSA8548991, agent alone): 34 µg/mL
MIC (S. aureus; ATCC29213, read-out: MIC, Alone): 34 µg/mL
MIC (S. aureus; MRSA, read-out: MIC, Alone): 68 µg/mL
MIC (S. aureus; read-out: MIC, Alone): 34 µg/mL
reduction of MIC in combination with PEN (S. aureus; four strains of MRSA): 2 fold
FICI (S. pneumoniae; [6]): 0.37
Outcome (S. pneumoniae; [6]): Synergy (=0.5, synergy)
FICI (S. pneumoniae; [7]): 0.125
Outcome (S. pneumoniae; [7]): Synergy (=0.5, synergy)
Mean log CFU at site of infection ([3]; Lung, 24 h, control 4.85): 1 log CFU
Mean log CFU at site of infection ([3]; Lung, 48 h, control 6.12): 2.39 (0.0001)^b log CFU
Mean log CFU at site of infection ([3]; Lung, 72 h, control 6.29): 1.05 (0.04)^b log CFU
Mean log CFU at site of infection ([3]; NW (nasal wash), 24 h, i.p. three times a day for 3 days, control 7.29): 6.08 (0.026)^b log CFU
Mean log CFU at site of infection ([3]; NW, 48 h, control 5.97): 2.76 (0.005)^b log CFU
Mean log CFU at site of infection ([3]; NW, 72 h, control 6.01): 3 (0.011)^b log CFU
reduction of 19A bacterial numbers ([3]; at 24 h): two-log reduction
Mean log CFU at site of infection ([4]; Lung, 24 h, control 2.82): 1 (<0.0001)^b log CFU
Mean log CFU at site of infection ([4]; Lung, 48 h, control 7.57): 1 (0.001)^b log CFU
Mean log CFU at site of infection ([4]; Lung, 72 h, control 4.95): 2.5 (<0.0001)^b log CFU
Mean log CFU at site of infection ([4]; NW (nasal wash), 24 h, i.p. three times a day for 3 days, control 6.72): 3.30 log CFU
Mean log CFU at site of infection ([4]; NW, 48 h, control 6.27): 4.6 (0.0002)^b log CFU
Mean log CFU at site of infection ([4]; NW, 72 h, control 7.09): 5.52 (<0.0001)^b log CFU
reduction in 19F bacterial numbers ([4]; at 24 h): one-log reduction
inhibition of biofilm formation [5]: inhibit biofilm formation at sub-MIC

Source: PMC4438233, “Antibacterial effects of Traditional Chinese Medicine monomers against Streptococcus pneumoniae via inhibiting pneumococcal histidine kinase (VicK)” (Frontiers in Microbiology, 2015)
